Reference: ChEMBL document CHEMBL1629509, “Design, synthesis and inhibitory activity against Mycobacterium tuberculosis thymidine monophosphate kinase of acyclic nucleoside analogues with a distal imidazoquinolinone” (Eur J Med Chem, 2010)
≈ marks a conversion by molar mass, not a printed value. Calls of active or inactive are those of the source. No cut-off for these calls is given here.

What was measured:
[1] = biological target: T1, Thymidylate kinase (Mycobacterium tuberculosis, UniProt P9WKE1); test: Inhibition of Mycobacterium tuberculosis Thymidine monophosphate kinase by spectrophotometry
T1 sequence (P9WKE1 whole entry): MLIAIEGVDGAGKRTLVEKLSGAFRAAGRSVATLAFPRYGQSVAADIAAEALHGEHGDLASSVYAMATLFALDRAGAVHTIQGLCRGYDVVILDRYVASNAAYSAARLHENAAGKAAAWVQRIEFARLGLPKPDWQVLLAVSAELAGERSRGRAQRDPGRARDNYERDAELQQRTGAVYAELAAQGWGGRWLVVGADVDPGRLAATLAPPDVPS

[2] = tested on: Mycolicibacterium smegmatis; test: Antimycobacterial activity against Mycobacterium smegmatis mc2155 assessed as growth inhibition at 160 ug/ml by resazurin microtiter plate assay; format: functional, organism-based
[3] = Solubility of the compound in water; format: physicochemical

Row | Structure (SMILES) | Ki [1] [µM] | Activity [2] | solubility [3] [µg/mL]
1 | Cc1cn(C/C=C/Cn2c(=O)n3c4c(cccc42)CC(N)C3)c(=O)[nH]c1=O (stereo not drawn) | 7.07 | inactive | –
2 | Cc1cn(C/C=C/Cn2c(=O)n3c4c(cccc42)CCC3)c(=O)[nH]c1=O | 1.16 | inactive | –
3 | Cc1cn([C@H]2C[C@H](O)[C@@H](COP(=O)(O)O)O2)c(=O)[nH]c1=O [THYMIDINE MONOPHOSPHATE] | 4.5 | – | –
4 | Cc1cn(C/C=C/CN2C(=O)c3cccc4cccc2c34)c(=O)[nH]c1=O | 0.42 | – | 640 (≈ 1840 µM)
5 | O=c1[nH]c(=O)n(C/C=C/CN2c3cccc4c3N(CCC4)S2(=O)=O)cc1Br | 0.3 | inactive | –
6 | Cc1cn(C/C=C/CN2c3cccc4cccc(c34)S2(=O)=O)c(=O)[nH]c1=O | 0.27 | – | –
7 | CC(=O)Nc1cc2c3c(c1)n(C/C=C/Cn1cc(C)c(=O)[nH]c1=O)c(=O)n3CCC2 | 0.93 | inactive | –
8 | Cc1cn(C/C=C/CN2c3cccc4c3N(CCC4)S2(=O)=O)c(=O)[nH]c1=O | 0.57 | inactive | –
9 | Cc1cn(C/C=C/Cn2c(=O)n3c4c(cc(N)cc42)CCC3)c(=O)[nH]c1=O | 2.46 | inactive | –
10 | CC(=O)NC1Cc2cccc3c2n(c(=O)n3C/C=C/Cn2cc(C)c(=O)[nH]c2=O)C1 (stereo not drawn) | 5.8 | inactive | –
